Data taken from patent US20150105252A1, “SUBSTITUTED PYRAZOLES AS HERBICIDES” (E I DU PONT DE NEMOURS AND COMPANY, priority 2013, published 2015).

Legend:
galium = test: Test C preemergence; format: in vivo, Galium aparine; conditions: for Plant response rating (scale of 0 to 100), Galium: Preemergence, 250 g ai/ha
Outline: (§1)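 Visual control ratings on a 0–100 scale (100 = complete control) made against untreated controls after 13 to 15 days in greenhouse. Compounds applied in surfactant-containing solvent mixture, either preemergence to loam/sand-sown seeds or postemergence to 1- to 4-leaf plants (2–18 cm) in peat medium.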

velvetleaf [1] = test: Test A postemergence; format: in vivo, Abutilon theophrasti
Outline: (§2)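 Ratings express plant response from 0 (no effect) to 100 (complete control), judged visually against untreated controls after approximately 10 days in the greenhouse. Preemergence applications were made as directed soil sprays onto seeded loam–sand mix, and postemergence applications onto 2–10 cm plants at one- to two-leaf stage.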

barnyardgrass [2] = test: Test C preemergence; format: in vivo, Echinochloa crus-galli; conditions: for Plant response rating (scale of 0 to 100), Barnyardgrass: Preemergence, 250 g ai/ha
Outline: as §1

blackgrass = test: Test C preemergence; format: in vivo, Alopecurus myosuroides; conditions: for Plant response rating (scale of 0 to 100), Blackgrass: Preemergence, 250 g ai/ha
Outline: as §1

crabgrass, large = test: Test A postemergence; format: in vivo, Digitaria sanguinalis
Outline: as §2

oilseed rape = test: Test C preemergence; format: in vivo, Brassica napus; conditions: for Plant response rating (scale of 0 to 100), Oilseed Rape: Preemergence, 250 g ai/ha
Outline: as §1

pigweed = test: Test C preemergence; format: in vivo, Amaranthus retroflexus; conditions: for Plant response rating (scale of 0 to 100), Pigweed: Preemergence, 250 g ai/ha
Outline: as §1

ryegrass, Italian = test: Test C preemergence; format: in vivo, Lolium multiflorum; conditions: for Plant response rating (scale of 0 to 100), Ryegrass, Italian: Preemergence, 250 g ai/ha
Outline: as §1

soybean = test: Test C preemergence; format: in vivo, Glycine max; conditions: for Plant response rating (scale of 0 to 100), Soybean: Preemergence, 250 g ai/ha
Outline: as §1

corn [3] = test: Test A postemergence; format: in vivo, Zea mays
Outline: as §2

wheat = test: Test C preemergence; format: in vivo, Triticum aestivum; conditions: for Plant response rating (scale of 0 to 100), Wheat: Preemergence, 250 g ai/ha
Outline: as §1

corn [4] = test: Test C preemergence; format: in vivo, Zea mays; conditions: for Plant response rating (scale of 0 to 100), Corn: Preemergence, 250 g ai/ha
Outline: as §1

velvetleaf [5] = test: Test C preemergence; format: in vivo, Abutilon theophrasti; conditions: for Plant response rating (scale of 0 to 100), Velvetleaf: Preemergence, 250 g ai/ha
Outline: as §1

barnyardgrass [6] = test: Test A preemergence; format: in vivo, Echinochloa crus-galli; conditions: preemergence
Outline: as §2

johnsongrass = test: Test C preemergence; format: in vivo, Sorghum halepense; conditions: for Plant response rating (scale of 0 to 100), Johnsongrass: Preemergence, 250 g ai/ha
Outline: as §1

[7] = preemergence, 31 g ai/ha, visual rating, scale 0 to 100 (0 no effect, 100 complete control), 13 to 15 days
[8] = preemergence, 62 g ai/ha, 13 to 15 days, scale 0 to 100, 0 = no effect, 100 = complete control
[9] = preemergence, 125 g ai/ha, scale 0 to 100, 0 is no effect, 100 is complete control
[10] = Postemergence, 500 g ai/ha, visual rating after approx. 10 days, 0 to 100 scale (0 no effect, 100 complete control)
[11] = postemergence, 125 g ai/ha, about 10 days, visual rating on 0 to 100 scale (0 no effect, 100 complete control)
[12] = preemergence, 31 g ai/ha, scale 0 to 100 (0 no effect, 100 complete control), 13 to 15 days
[13] = 125 g ai/ha, visual injury, 0 to 100 scale, approx. 10 days
[14] = 500 g ai/ha, visual injury after approx. 10 days, 0 to 100 scale (0 no effect, 100 complete control)
[15] = preemergence, 62 g ai/ha, scale 0 to 100 (0 no effect, 100 complete control), 13 to 15 days

CCOc1cc(C(=O)NCC(F)(F)F)nn1Cc1ccnc(C(F)(F)F)c1 [Compound 104]
40: Wheat plant response rating (wheat; [7]) | Corn plant response rating (corn [4]; [7])
98: Plant response rating, Galium (galium; [8]) | Plant response rating (scale of 0 to 100), Soybean (soybean) | Soybean plant response rating (soybean; [9]) | Plant response rating (scale of 0 to 100), Corn (corn [4]) | Corn plant response rating (corn [4]; [9])
100: Plant response rating (scale of 0 to 100), Galium (galium) | Galium plant response rating (galium; [9]) | Velvetleaf plant response rating (velvetleaf [1]; [10]) | Plant response rating (scale of 0 to 100), Barnyardgrass (barnyardgrass [2]) | Barnyardgrass plant response rating (barnyardgrass [2]; [12]) | Plant response rating, Barnyardgrass (barnyardgrass [2]; [8]) | Barnyardgrass plant response rating (barnyardgrass [2]; [9]) | Plant response rating (scale of 0 to 100), Oilseed Rape (oilseed rape) | Oilseed Rape plant response rating (oilseed rape; [7]) | Plant response rating, Oilseed Rape (oilseed rape; [8]) | Oilseed Rape plant response rating (oilseed rape; [9]) | Plant response rating (scale of 0 to 100), Pigweed (pigweed) | Pigweed plant response rating (pigweed; [7]) | Plant response rating, Pigweed (pigweed; [8]) | Pigweed plant response rating (pigweed; [9]) | Corn plant response rating (corn [3]; [10]) | Plant response rating (scale of 0 to 100), Velvetleaf (velvetleaf [5]) | Velvetleaf plant response rating (velvetleaf [5]; [7]) | Plant response rating, Velvetleaf (velvetleaf [5]; [8]) | Velvetleaf plant response rating (velvetleaf [5]; [9]) | Barnyardgrass plant response rating (barnyardgrass [6]; [13]) | Barnyardgrass plant response rating (barnyardgrass [6]; [14]) | Plant response rating (scale of 0 to 100), Johnsongrass (johnsongrass) | Plant response rating, Johnsongrass (johnsongrass; [8]) | Johnsongrass plant response rating (johnsongrass; [9])
95: Plant response rating (scale of 0 to 100), Ryegrass, Italian (ryegrass, Italian) | Ryegrass, Italian plant response rating (ryegrass, Italian; [9]) | Plant response rating, Soybean (soybean; [8])
65: Plant response rating, Corn (corn [4]; [8])
90: Galium plant response rating (galium; [7]) | Velvetleaf plant response rating (velvetleaf [1]; [11]) | Plant response rating (scale of 0 to 100), Blackgrass (blackgrass) | Plant response rating, Blackgrass (blackgrass; [8]) | Blackgrass plant response rating (blackgrass; [9]) | Crabgrass, Large plant response rating (crabgrass, large; [10]) | Crabgrass, Large plant response rating (crabgrass, large; [11]) | Plant response rating, Ryegrass, Italian (ryegrass, Italian; [8]) | Corn plant response rating (corn [3]; [11]) | Plant response rating (scale of 0 to 100), Wheat (wheat) | Wheat plant response rating (wheat; [9]) | Johnsongrass plant response rating (johnsongrass; [7])
80: Ryegrass, Italian plant response rating (ryegrass, Italian; [7])
85: Blackgrass plant response rating (blackgrass; [7]) | Soybean plant response rating (soybean; [7])
60: Plant response rating, Wheat (wheat; [8])

CCCc1cc(C(=O)NCC(F)(F)F)nn1Cc1ccnc(C(F)(F)F)c1 [Compound 105]
70: Soybean plant response rating (soybean; [7]) | Soybean plant response rating (soybean; [15])
100: Plant response rating (scale of 0 to 100), Galium (galium) | Galium plant response rating (galium; [7]) | Galium plant response rating (galium; [15]) | Galium plant response rating (galium; [9]) | Velvetleaf plant response rating (velvetleaf [1]; [10]) | Velvetleaf plant response rating (velvetleaf [1]; [11]) | Plant response rating (scale of 0 to 100), Barnyardgrass (barnyardgrass [2]) | Barnyardgrass plant response rating (barnyardgrass [2]; [15]) | Barnyardgrass plant response rating (barnyardgrass [2]; [9]) | Crabgrass, Large plant response rating (crabgrass, large; [10]) | Crabgrass, Large plant response rating (crabgrass, large; [11]) | Plant response rating (scale of 0 to 100), Oilseed Rape (oilseed rape) | Plant response rating (scale of 0 to 100), Pigweed (pigweed) | Pigweed plant response rating (pigweed; [7]) | Pigweed plant response rating (pigweed; [15]) | Pigweed plant response rating (pigweed; [9]) | Corn plant response rating (corn [3]; [10]) | Plant response rating (scale of 0 to 100), Velvetleaf (velvetleaf [5]) | Velvetleaf plant response rating (velvetleaf [5]; [15]) | Velvetleaf plant response rating (velvetleaf [5]; [9]) | Barnyardgrass plant response rating (barnyardgrass [6]; [13]) | Barnyardgrass plant response rating (barnyardgrass [6]; [14]) | Plant response rating (scale of 0 to 100), Johnsongrass (johnsongrass) | Johnsongrass plant response rating (johnsongrass; [9])
80: Corn plant response rating (corn [3]; [11]) | Corn plant response rating (corn [4]; [9]) | Johnsongrass plant response rating (johnsongrass; [7])
75: Wheat plant response rating (wheat; [7])
85: Ryegrass, Italian plant response rating (ryegrass, Italian; [7]) | Wheat plant response rating (wheat; [15])
95: Oilseed Rape plant response rating (oilseed rape; [7]) | Oilseed Rape plant response rating (oilseed rape; [15]) | Oilseed Rape plant response rating (oilseed rape; [9]) | Plant response rating (scale of 0 to 100), Ryegrass, Italian (ryegrass, Italian) | Ryegrass, Italian plant response rating (ryegrass, Italian; [15]) | Ryegrass, Italian plant response rating (ryegrass, Italian; [9]) | Plant response rating (scale of 0 to 100), Soybean (soybean) | Soybean plant response rating (soybean; [9]) | Plant response rating (scale of 0 to 100), Corn (corn [4]) | Johnsongrass plant response rating (johnsongrass; [15])
90: Plant response rating (scale of 0 to 100), Blackgrass (blackgrass) | Blackgrass plant response rating (blackgrass; [7]) | Blackgrass plant response rating (blackgrass; [15]) | Blackgrass plant response rating (blackgrass; [9]) | Plant response rating (scale of 0 to 100), Wheat (wheat) | Wheat plant response rating (wheat; [9])
65: Corn plant response rating (corn [4]; [7])
98: Barnyardgrass plant response rating (barnyardgrass [2]; [12]) | Velvetleaf plant response rating (velvetleaf [5]; [7])
